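Five compound concentrations were applied to cells in 96-well plates for 48 hours; endpoints were derived by simple linear interpolation of the resulting dose-response curve. GI50 marks 50% less growth.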 Activity calls are given as the source filed them. Cut-off read from the data, not from the text of the source: active = GI50 up to about 1.1 µM and inactive = higher.
Assays:
Assay in all cases: NCI-60 cell line screen, 48 h
[1] = tested on: CAKI-1
[2] = tested on: HOP-62
[3] = tested on: SR
[4] = tested on: MDA-MB-231
[5] = tested on: UACC-257
[6] = tested on: SNB-75
[7] = tested on: OVCAR-4
[8] = tested on: SK-MEL-28
[9] = tested on: SW-620
[10] = tested on: SK-OV-3
[11] = tested on: KM12
[12] = tested on: UO-31
[13] = tested on: HCC 2998
[14] = tested on: UACC-62
[15] = tested on: CCRF-CEM
[16] = tested on: A498
[17] = tested on: SF-295
[18] = tested on: Hs-578T
[19] = tested on: LOX IMVI
[20] = tested on: NCI-H226

| SMILES | GI50 [1] | GI50 [2] | GI50 [3] | GI50 [4] | GI50 [5] | GI50 [6] | GI50 [7] | GI50 [8] | GI50 [9] | GI50 [10] | GI50 [11] | GI50 [12] | GI50 [13] | GI50 [14] | GI50 [15] | GI50 [16] | GI50 [17] | GI50 [18] | GI50 [19] | GI50 [20] |
| --- | --- | --- | --- | --- | --- | --- | --- | --- | --- | --- | --- | --- | --- | --- | --- | --- | --- | --- | --- | --- |
| CCCCCCN(C(=O)Oc1ccccc1)C(C#N)c1ccccc1 (stereo not given) | > 100 µM (inactive) | > 100 µM (inactive) | > 100 µM (inactive) | > 100 µM (inactive) | > 100 µM (inactive) | > 100 µM (inactive) | > 100 µM (inactive) | > 100 µM (inactive) | > 100 µM (inactive) | > 100 µM (inactive) | > 100 µM (inactive) | > 100 µM (inactive) | > 100 µM (inactive) | > 100 µM (inactive) | > 100 µM (inactive) | > 100 µM (inactive) | > 100 µM (inactive) | > 100 µM (inactive) | > 100 µM (inactive) | > 100 µM (inactive) |
| CC(C)c1ccc2c(c1)/C(=C1/Nc3ccccc3/C1=N/O)C(=O)N2 | 4.29 µM (inactive) | 10.7 µM (inactive) | 2.61 µM (inactive) | 15.3 µM (inactive) | 12.1 µM (inactive) | 12.7 µM (inactive) | 4.32 µM (inactive) | 13.5 µM (inactive) | 5.11 µM (inactive) | 6.55 µM (inactive) | 0.0431 µM (active) | 3.69 µM (inactive) | 4.75 µM (inactive) | 8.57 µM (inactive) | 3.14 µM (inactive) | 2.78 µM (inactive) | 2.13 µM (inactive) | 4.76 µM (inactive) | 5.07 µM (inactive) | 10.8 µM (inactive) |
| COc1ccc(CC2NCCc3cc(OC)c(OC)cc32)cc1Br (stereo not given) | 19.7 µM (inactive) | 35.6 µM (inactive) | 23.9 µM (inactive) | 22 µM (inactive) | 17.3 µM (inactive) | 24.3 µM (inactive) | 38 µM (inactive) | 16.6 µM (inactive) | 30.9 µM (inactive) | 96.4 µM (inactive) | 21.6 µM (inactive) | 28.2 µM (inactive) | 18 µM (inactive) | 28.9 µM (inactive) | 29.2 µM (inactive) | 30.1 µM (inactive) | 21 µM (inactive) | 19.2 µM (inactive) | 19.1 µM (inactive) | 18.6 µM (inactive) |
| C=C(Cl)C(=C)CCC(Cl)C(C)(C)Cl (stereo not given) | > 100 µM (inactive) | > 100 µM (inactive) | > 100 µM (inactive) | > 100 µM (inactive) | > 100 µM (inactive) | > 100 µM (inactive) | > 100 µM (inactive) | > 100 µM (inactive) | > 100 µM (inactive) | > 100 µM (inactive) | > 100 µM (inactive) | > 100 µM (inactive) | > 100 µM (inactive) | > 100 µM (inactive) | > 100 µM (inactive) | > 100 µM (inactive) | > 100 µM (inactive) | > 100 µM (inactive) | > 100 µM (inactive) | > 100 µM (inactive) |
| c1cc(CSSCc2ccncc2)ccn1 | 29.5 µM (inactive) | 46.2 µM (inactive) | 3.44 µM (inactive) | 25.9 µM (inactive) | 15.9 µM (inactive) | 57.1 µM (inactive) | > 74.3 µM (inactive) | 64 µM (inactive) | 6.27 µM (inactive) | 23.1 µM (inactive) | 29.6 µM (inactive) | 8.99 µM (inactive) | 22.9 µM (inactive) | 24.9 µM (inactive) | 1.24 µM (inactive) | 42.7 µM (inactive) | 37.6 µM (inactive) | 29.2 µM (inactive) | 10.6 µM (inactive) | 30.6 µM (inactive) |
| CC1(c2cccc(C(F)(F)F)c2)CC(c2cccc(C(F)(F)F)c2)=C(C#N)C(=C(C#N)C#N)N1 (stereo not given) | 18.7 µM (inactive) | 17.1 µM (inactive) | 12.6 µM (inactive) | 23 µM (inactive) | 15.9 µM (inactive) | 19.3 µM (inactive) | 16 µM (inactive) | 16 µM (inactive) | 15 µM (inactive) | 16.1 µM (inactive) | 16.5 µM (inactive) | 18.6 µM (inactive) | 17.2 µM (inactive) | 16.7 µM (inactive) | 2.88 µM (inactive) | 18.1 µM (inactive) | 16.6 µM (inactive) | 17.3 µM (inactive) | 17.7 µM (inactive) | 18.2 µM (inactive) |
| Nc1nc(F)nc2c1ncn2C1OC(COP(=O)(O)O)C(O)C1O (stereo not given) | 8.17 µM (inactive) | 8.53 µM (inactive) | 21.8 µM (inactive) | 80.2 µM (inactive) | 146 µM (inactive) | 188 µM (inactive) | 212 µM (inactive) | 58.1 µM (inactive) | 64.9 µM (inactive) | 26.9 µM (inactive) | 266 µM (inactive) | 13.2 µM (inactive) | 177 µM (inactive) | 56.2 µM (inactive) | 1.59 µM (inactive) | 146 µM (inactive) | 309 µM (inactive) | 81.5 µM (inactive) | 53.8 µM (inactive) | 98.2 µM (inactive) |
| COc1ccc(CC2Cc3ccccc3CC(=O)N2)cc1OC (stereo not given) | > 100 µM (inactive) | > 100 µM (inactive) | 67.9 µM (inactive) | > 100 µM (inactive) | 47.4 µM (inactive) | 48.2 µM (inactive) | 57 µM (inactive) | > 100 µM (inactive) | > 100 µM (inactive) | > 100 µM (inactive) | 39.2 µM (inactive) | > 100 µM (inactive) | > 100 µM (inactive) | 48.2 µM (inactive) | 28.1 µM (inactive) | > 100 µM (inactive) | 86.7 µM (inactive) | > 100 µM (inactive) | 32.8 µM (inactive) | 43.6 µM (inactive) |
| O=C1OC(CN2CCN(c3ccccc3)CC2)CN1C(=S)Nc1ccccc1 (stereo not given) | > 100 µM (inactive) | > 100 µM (inactive) | > 100 µM (inactive) | > 100 µM (inactive) | > 100 µM (inactive) | 65.6 µM (inactive) | > 100 µM (inactive) | > 100 µM (inactive) | > 100 µM (inactive) | > 100 µM (inactive) | 88.3 µM (inactive) | > 100 µM (inactive) | > 100 µM (inactive) | > 100 µM (inactive) | > 100 µM (inactive) | > 100 µM (inactive) | > 100 µM (inactive) | > 100 µM (inactive) | > 100 µM (inactive) | > 100 µM (inactive) |
| O=C(Nc1nnc(-c2ccc(Cl)cc2)o1)C(SC(=S)N1CCCCC1)c1ccccc1 (stereo not given) | 13.6 µM (inactive) | 25.9 µM (inactive) | 3.91 µM (inactive) | 19.4 µM (inactive) | 21.7 µM (inactive) | 39.1 µM (inactive) | 22 µM (inactive) | 18.1 µM (inactive) | 33.3 µM (inactive) | 32.3 µM (inactive) | 24.8 µM (inactive) | 10.5 µM (inactive) | 21.4 µM (inactive) | 14.2 µM (inactive) | 4.71 µM (inactive) | 18.5 µM (inactive) | 12 µM (inactive) | 26.2 µM (inactive) | 6.12 µM (inactive) | 32.7 µM (inactive) |
| CNC1C(=O)C(C)C(O)(C(CC(C)C(O)/C=C/C=C/CNC(=O)C(C)(C)C(O)\C(C)=C/C=C\C=C\Cc2cnc(C)o2)OC)C12C(=O)OC2C.CNC1C(=O)C(C)C(O)(C(CC(C)C(O)/C=C/C=C/CNC(=O)C(C)(C)C(O)\C(C)=C/C=C\C=C\Cc2cnc(C)o2)OC)C12C(=O)OC2COC (stereo not given) | 31.8 µM (inactive) | 8.43 µM (inactive) | 15.1 µM (inactive) | 26.9 µM (inactive) | 0.188 µM (active) | 0.942 µM (active) | 0.345 µM (active) | 23.1 µM (inactive) | 8.65 µM (inactive) | 19 µM (inactive) | 7.01 µM (inactive) | 10.5 µM (inactive) | 13.3 µM (inactive) | 13.3 µM (inactive) | 0.614 µM (active) | 28.4 µM (inactive) | 0.528 µM (active) | 12.4 µM (inactive) | 14.2 µM (inactive) | 0.668 µM (active) |
| ON[C@@H]1C=C[C@H](n2cnc3c(NC4CC4)ncnc32)C1 | > 100 µM (inactive) | > 100 µM (inactive) | 88.3 µM (inactive) | > 100 µM (inactive) | > 100 µM (inactive) | > 100 µM (inactive) | > 100 µM (inactive) | > 100 µM (inactive) | > 100 µM (inactive) | > 100 µM (inactive) | > 100 µM (inactive) | > 100 µM (inactive) | > 100 µM (inactive) | > 100 µM (inactive) | > 100 µM (inactive) | > 100 µM (inactive) | > 100 µM (inactive) | > 100 µM (inactive) | 87.5 µM (inactive) | > 100 µM (inactive) |
| CN(C)[C@H]1CC[C@H]2[C@@H]3CCC4C[C@@H](NC(=O)NC(Cc5ccccc5)c5nccs5)CC[C@]4(C)[C@H]3CC[C@]12C (stereo not given in full) | 1.7 µM (inactive) | 0.826 µM (active) | 1.51 µM (inactive) | 0.377 µM (active) | 1.87 µM (inactive) | 1.75 µM (inactive) | 1.72 µM (inactive) | 1.11 µM (active) | 0.687 µM (active) | 1.67 µM (inactive) | 1.12 µM (inactive) | 1.69 µM (inactive) | 1.75 µM (inactive) | 1.92 µM (inactive) | 0.29 µM (active) | 1.69 µM (inactive) | 0.757 µM (active) | 2.19 µM (inactive) | 1.66 µM (inactive) | 2.09 µM (inactive) |

Source: ChEMBL document CHEMBL1201862, “PubChem BioAssay data set” (2004)
